pIC50: −log10 of the molar value.

What is called pIC50 is the IC50 on a negative log10 scale, so that one unit is a factor of ten.

Test [1] has as its system ATXN3 transcripts containing exon 4 (E4E5). Description: ATXN3 quantitative splicing assay (qPCR, SK-N-MC cells). Format: cell-based. Conditions: Homo sapiens, 24 h treatment, qPCR E4E5 primers/probe, read-out: ATXN3 Potency - Splicing E4E5 IC50. On the procedure: Human neuroblastoma SK-N-MC cells were plated in 384-well plates at 20,000 cells/well. Twenty-four hours after plating, cells were treated with compounds for 24 h at appropriate concentrations ranging from 30 μM to 0.6 nM (0.3% DMSO). Treated cells were lysed in 15 μL of lysis buffer, and cDNA was synthesized using the Fast Advanced Cells-to-Ct kit. Two μL of each cDNA was used in qPCR reactions to confirm the exon 4 skipped transcripts of ATXN3. A second set of primers/probe E4E5 was used to detect the transcripts containing exon 4. The third set of primers/probe E8E9 was used to detect total gene level of ATXN3. The qPCR reactions were prepared in 384-well plates in 10 μL volume, using TaqMan™ Fast Advanced Master Mix with primers and probes shown in the table below. Reactions were run in a Quant Studio 6 qPCR instrument with default settings.
The primers and probes are listed below in Table 4.
(Quantitative PCR measures a nucleic acid by following its amplification.)

The subject of another test is total ATXN3 protein. As to the kind of experiment: ATXN3 total protein assay (MSD, SK-N-MC cells). The note with it: 48 hours incubation, read-out: ATXN3 Potency - Protein IC50. In kind it is cell-based, Human. On the procedure: Human neuroblastoma SK-N-MC cells were seeded at 10,000 cells/well in 384 well plates one day prior to compound treatment. The concentrations of compounds were tested at appropriate doses ranging from 30 μM to 0.6 nM. After incubation for 48 hours, the cells were lysed with 25 μL of lysis buffer containing protease inhibitors, and total ATXN3 protein levels were assessed by Mesoscale Discovery (MSD) assay developed with one pair of anti-ATXN3 antibodies. The capture and detect antibodies were raised in mouse and rabbit respectively. Anti-rabbit MSD-ST antibody was used for secondary antibody.
ATXN3 recombinant protein was used for standards. The readouts were captured with 35 μL of MSD read buffer and multi-array 384-well high binding plates.

Take `Cc1c(C[C@H](C)N)sc2c(NCc3cc(F)cs3)cnnc12` [Compound 45, 6-[(2S)-2-aminopropyl]-N-[(4-fluorothiophen-2-yl)methyl]-7-methylthieno[3,2-c]pyridazin-4-amine]: the pIC50 (in test [1]; with total ATXN3 protein) was 5.30 to 6.30 each time.
For the compound `N[C@@H](CO)Cc1cc2nncc(NCc3cccs3)c2s1` [Compound 53, (2R)-2-amino-3-(4-{[(thiophen-2-yl)methyl]amino}thieno[3,2-c]pyridazin-6-yl)propan-1-ol], the pIC50 (in test [1]; with total ATXN3 protein) was 5.30 to 6.30 throughout.
With `Cc1c(C[C@H](C)N)sc2c(NCc3csc(F)c3)cnnc12` [Compound 56, 6-[(2S)-2-aminopropyl]-N-[(5-fluorothiophen-3-yl)methyl]-7-methylthieno[3,2-c]pyridazin-4-amine], the pIC50 (in test [1]; in the test on total ATXN3 protein) was 4.40 to 5.00 each time.
Take `Cc1c(C[C@@H](N)[C@H](C)F)sc2c(NCc3cccs3)cnnc12` [Compound 110, 6-[(2R,3S)-2-amino-3-fluorobutyl]-7-methyl-N-[(thiophen-2-yl)methyl]thieno[3,2-c]pyridazin-4-amine]: the pIC50 (in test [1]; in the test on total ATXN3 protein) was 6.30 to 7.00 in each case.
As to `Cc1c(C[C@@H](N)CO)sc2c(NCc3sccc3F)cnnc12` [Compound 9, (2R)-2-amino-3-(4-{[(3-fluorothiophen-2-yl)methyl]amino}-7-methylthieno[3,2-c]pyridazin-6-yl)propan-1-ol], the pIC50 (in test [1]; in the test on total ATXN3 protein) was 4.40 to 5.00 in each case.
For the compound `CSC[C@H](N)Cc1sc2c(NCc3ccco3)cnnc2c1C` [Compound 30, 6-[(2R)-2-amino-3-(methylsulfanyl)propyl]-N-[(furan-2-yl)methyl]-7-methylthieno[3,2-c]pyridazin-4-amine], the pIC50 (in test [1]; in the test on total ATXN3 protein) was 5.30 to 6.30 throughout.
With `Cc1c(CC(N)C2COC2)sc2c(NCc3cccs3)cnnc12` (centres unmarked) [Compound 93, 6-[2-amino-2-(oxetan-3-yl)ethyl]-7-methyl-N-[(thiophen-2-yl)methyl]thieno[3,2-c]pyridazin-4-amine], the figures for the pIC50 (in test [1]; in the test with total ATXN3 protein) were 5.00 to 5.30 and 5.30 to 6.30, respectively.
On the same counts, the results for `Cc1c(C[C@H]2CCN2)sc2c(NCc3cccs3)cnnc12` [Compound 72, 6-{[(2R)-azetidin-2-yl]methyl}-7-methyl-N-[(thiophen-2-yl)methyl]thieno[3,2-c]pyridazin-4-amine] are 4.40 to 5.00 and 4.40 to 5.00.
On the same counts, the results for `Cc1c(C(C)CO)sc2c(NCc3cccs3)cnnc12` (centres unmarked) [Compound 54, 2-{7-methyl-4-[(thiophen-2-ylmethyl)amino]thieno[3,2-c]pyridazin-6-yl}propan-1-ol] are 4.40 to 5.00 and 4.40 to 5.00.
Take `Cc1ccc(CNc2cnnc3c(C)c(C[C@H](C)N)sc23)s1` [Compound 77, 6-[(2S)-2-aminopropyl]-7-methyl-N-[(5-methylthiophen-2-yl)methyl]thieno[3,2-c]pyridazin-4-amine]: in the test with total ATXN3 protein, the pIC50 is 4.40 to 5.00.
The same measure, in the same setting: the result for `Cc1csc(CNc2cnnc3c(C)c(C[C@H](C)N)sc23)c1` [Compound 79, 6-[(2S)-2-aminopropyl]-7-methyl-N-[(4-methylthiophen-2-yl)methyl]thieno[3,2-c]pyridazin-4-amine] reads 4.40 to 5.00; that for `Cc1ccsc1CNc1cnnc2c(C)c(C[C@H](C)N)sc12` [Compound 78, 6-[(2S)-2-aminopropyl]-7-methyl-N-[(3-methylthiophen-2-yl)methyl]thieno[3,2-c]pyridazin-4-amine], 4.40 to 5.00.
Same read-out and setting: the result for `CC(=O)CCc1sc2c(NCc3cccs3)cnnc2c1C` [Compound 88, 4-{7-methyl-4-[(thiophen-2-ylmethyl)amino]thieno[3,2-c]pyridazin-6-yl}butan-2-one] reads 4.40 to 5.00; that for `Cc1c(C[C@@H]2CCCN2)sc2c(NCc3cccs3)cnnc12` [Compound 70, 7-methyl-6-{[(2S)-pyrrolidin-2-yl]methyl}-N-[(thiophen-2-yl)methyl]thieno[3,2-c]pyridazin-4-amine], 4.40 to 5.00.

Values taken from patent US20250101034A1, “COMPOSITIONS USEFUL FOR MODULATING SPLICING” (SKYHAWK THERAPEUTICS, INC., priority 2021, published 2025).
